Data reported in ChEMBL document CHEMBL1128570, “Binding of 5H-dibenzo[a,d]cycloheptene and dibenz[b,f]oxepin analogues of clozapine to dopamine and serotonin receptors” (J Med Chem, 1995).

Columns and labels:
[1] = target: T1, 5-hydroxytryptamine receptor 2C (Rattus norvegicus, UniProt P08909); assay: Ability to inhibit the binding of iodine-125-labelled lysergic acid diethylamide([125I]-LSD) to the S-2C serotonin receptor.
T1 sequence (P08909 whole entry): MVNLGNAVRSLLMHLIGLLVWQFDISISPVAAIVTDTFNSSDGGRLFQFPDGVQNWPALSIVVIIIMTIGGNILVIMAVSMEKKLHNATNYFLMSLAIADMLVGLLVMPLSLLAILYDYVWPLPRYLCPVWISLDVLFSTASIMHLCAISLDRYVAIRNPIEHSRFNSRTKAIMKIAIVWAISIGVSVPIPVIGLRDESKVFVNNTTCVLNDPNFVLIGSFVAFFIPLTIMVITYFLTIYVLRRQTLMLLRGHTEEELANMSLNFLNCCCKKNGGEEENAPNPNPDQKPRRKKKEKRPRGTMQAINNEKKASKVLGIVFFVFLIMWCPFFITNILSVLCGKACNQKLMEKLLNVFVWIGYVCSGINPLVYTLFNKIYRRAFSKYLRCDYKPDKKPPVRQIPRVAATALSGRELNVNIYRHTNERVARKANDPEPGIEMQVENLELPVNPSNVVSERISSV

D(4) dopamine receptor = target: T2, D(4) dopamine receptor (Homo sapiens, UniProt P21917); assay: Ability to inhibit the binding of [3H]spiperone to the Dopamine receptor D4 in COS7 cells; type: cell-based, COS-7
T2 sequence (P21917 whole entry): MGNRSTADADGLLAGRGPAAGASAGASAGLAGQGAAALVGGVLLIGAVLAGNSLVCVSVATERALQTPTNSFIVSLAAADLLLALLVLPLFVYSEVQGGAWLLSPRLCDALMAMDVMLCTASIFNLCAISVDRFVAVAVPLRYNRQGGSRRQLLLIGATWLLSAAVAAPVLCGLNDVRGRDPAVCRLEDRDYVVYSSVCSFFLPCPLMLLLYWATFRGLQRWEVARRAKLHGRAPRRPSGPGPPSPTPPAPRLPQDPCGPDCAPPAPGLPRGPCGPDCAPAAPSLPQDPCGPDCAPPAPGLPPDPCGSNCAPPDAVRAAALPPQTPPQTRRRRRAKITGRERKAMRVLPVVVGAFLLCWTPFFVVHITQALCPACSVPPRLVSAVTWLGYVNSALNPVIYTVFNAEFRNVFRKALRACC

[2] = Ratio of Ki value towards dopamine D2L receptor to that of serotonin S-2A receptor.
D(2) dopamine receptor = D(2) dopamine receptor (Homo sapiens, UniProt P14416); assay: Ability to inhibit the binding of [3H]spiperone to the Dopamine receptor D2L in COS7 cells; type: cell-based, COS-7
[3] = target: T3, 5-hydroxytryptamine receptor 2A (Rattus norvegicus, UniProt P14842); assay: Ability to inhibit the binding of iodine-125-labelled lysergic acid diethylamide([125I]-LSD) to the S-2A serotonin receptor.
[4] = target: T3, 5-hydroxytryptamine receptor 2A; assay: Ability to inhibit the binding of iodine-125-labelled lysergic acid diethylamide([125I]-LSD) to the S-2A serotonin receptor in NIH3T3 cell line membranes; type: cell-based
[5] = target: T1, 5-hydroxytryptamine receptor 2C; assay: Ability to inhibit the binding of iodine-125-labelled lysergic acid diethylamide([125I]-LSD) to the S-2C serotonin receptor in NIH3T3 cell line membranes; type: cell-based

D(2) dopamine receptor, sequence (P14416 whole entry): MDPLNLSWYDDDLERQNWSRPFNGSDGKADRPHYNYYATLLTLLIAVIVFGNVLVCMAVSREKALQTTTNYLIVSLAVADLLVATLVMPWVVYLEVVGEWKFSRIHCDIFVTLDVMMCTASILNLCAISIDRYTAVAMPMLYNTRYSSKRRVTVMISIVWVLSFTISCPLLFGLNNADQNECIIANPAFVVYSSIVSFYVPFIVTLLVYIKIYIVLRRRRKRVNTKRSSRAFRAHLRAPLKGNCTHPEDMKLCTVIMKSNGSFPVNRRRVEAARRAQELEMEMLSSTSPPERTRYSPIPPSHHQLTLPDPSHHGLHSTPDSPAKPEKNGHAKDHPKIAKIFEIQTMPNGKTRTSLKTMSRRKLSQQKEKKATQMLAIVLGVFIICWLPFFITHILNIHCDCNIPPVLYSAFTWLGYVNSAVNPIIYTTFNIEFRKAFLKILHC
T3 sequence (P14842 whole entry): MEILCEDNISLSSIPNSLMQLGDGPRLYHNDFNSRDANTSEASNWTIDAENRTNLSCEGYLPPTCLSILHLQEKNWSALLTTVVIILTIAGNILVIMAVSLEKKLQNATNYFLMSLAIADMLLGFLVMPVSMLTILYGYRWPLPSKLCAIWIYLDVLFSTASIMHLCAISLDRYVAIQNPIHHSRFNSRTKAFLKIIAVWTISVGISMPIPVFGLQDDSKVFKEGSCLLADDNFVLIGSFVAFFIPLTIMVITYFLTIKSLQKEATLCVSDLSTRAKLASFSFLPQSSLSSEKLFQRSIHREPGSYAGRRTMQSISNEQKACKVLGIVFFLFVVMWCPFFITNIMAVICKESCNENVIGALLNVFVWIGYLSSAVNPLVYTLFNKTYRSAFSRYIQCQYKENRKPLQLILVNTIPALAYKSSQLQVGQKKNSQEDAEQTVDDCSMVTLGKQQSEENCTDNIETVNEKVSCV

Ki [1]	Ki (D(4) dopamine receptor)	Ratio [2]	Ki (D(2) dopamine receptor)	Ki [3]	Ki [4]	Ki [5]	Compound
46 nM	60 nM	4.2	83 nM	20 nM	–	–	C=CCN1CC=C(C2=Cc3ccccc3Cc3ccccc32)CC1
–	26 nM	10	61 nM	–	6 nM	14 nM	CCN1CC=C(C2=Cc3ccccc3Oc3ccccc32)CC1
1200 nM	100 nM	0.58	440 nM	760 nM	–	–	CC(C)=C1c2ccccc2C=C(C2=CCN(C)CC2)c2cc(Cl)ccc21
–	–	0.8	–	–	–	–	CN1CCN(C2=Cc3ccccc3Oc3ccc(Cl)cc32)CC1
–	37 nM	5	110 nM	–	22 nM	51 nM	C=CCN1CC=C(C2=Cc3ccccc3Oc3ccccc32)CC1
–	–	0.48	–	–	–	–	CC(C)=C1c2ccccc2C=C(C2=CCN(C)CC2)c2ccccc21
–	–	5	–	–	–	–	CN1CCN(C2=Cc3ccccc3Oc3ccccc32)CC1
7 nM	28 nM	9.8	44 nM	4.5 nM	–	–	CCN1CC=C(C2=Cc3ccccc3Cc3ccccc32)CC1
14 nM	12 nM	15	89 nM	6 nM	–	–	CN1CC=C(C2=Cc3ccccc3Cc3ccccc32)CC1
–	9.5 nM	30	82 nM	–	3 nM	8 nM	CN1CCC(C2=Cc3ccccc3Oc3ccccc32)CC1
–	–	9.4	–	–	–	–	CC1c2ccccc2C=C(C2=CCN(C)CC2)c2ccccc21 (configuration not stated)
–	29 nM	–	–	–	6 nM	20 nM	CN1CC=C(C2=Cc3ccccc3Oc3ccccc32)CC1
